Among the data in patent US20090062273A1, “3-H-pyrazolopyridines and salts thereof, pharmaceutical compositions comprising same, methods of preparing same and uses of same” (priority 2006, published 2009) are IC50 values, retold here.

Where only a bound is given, the exact number is not on record here.

Experiment [1] deals with T1, Tie2 (Homo sapiens, UniProt Q02763). The experiment is described as follows: Tie-2-Kinase HTRF-Assay without kinase preactivation. The class given is biochemical. Further details: fusion protein of GST and the intracellular domains of Tie-2; GST; made in house; host or cells: insect cells (Hi-5). To be noted: GST-Tie-2 intracellular domains, 10 μM ATP. The method in brief:
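GST fusion of the Tie-2 intracellular domains from insect cells, not preactivated, run 60 min at 22 °C with 10 μM ATP and 1 μM biotinylated peptide, HEPES pH 7 with MgCl2/MnCl2, 1% DMSO; compounds 0.001-20 μM. EDTA stop, HTRF 665/620 nm ratio; IC50 by 4-parameter fit.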
On the technique in general: TR-FRET usually uses a lanthanide donor and a delayed reading to cut background.
Target sequence in this assay (Q02763 770-1124 limits assumed, species assumed): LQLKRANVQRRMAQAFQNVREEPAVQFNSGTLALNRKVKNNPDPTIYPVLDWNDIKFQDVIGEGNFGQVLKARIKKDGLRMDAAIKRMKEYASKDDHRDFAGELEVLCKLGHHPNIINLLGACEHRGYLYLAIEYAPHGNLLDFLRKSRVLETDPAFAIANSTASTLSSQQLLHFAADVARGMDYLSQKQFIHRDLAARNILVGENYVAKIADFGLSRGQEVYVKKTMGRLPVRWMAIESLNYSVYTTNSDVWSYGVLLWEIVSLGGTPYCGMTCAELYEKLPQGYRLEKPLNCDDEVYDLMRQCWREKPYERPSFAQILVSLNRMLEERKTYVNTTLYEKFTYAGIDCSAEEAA

The target of experiment [2] is T1, Tie2. The experiment is described as follows: Tie2 ELISA assay (cellular Tie2 autophosphorylation). The format is cell-based. To be noted: CHO cells stably transfected with Tie2, stimulated by angiopoietin-2; Tie2 autophosphorylation by sandwich-ELISA; read-out: Tie 2 activity (assay 1). Further details: expressed in transfected cells; host or cells: CHO (CHO Tie2/DHFR).
Target sequence in this assay (Q02763 23-1124, species assumed): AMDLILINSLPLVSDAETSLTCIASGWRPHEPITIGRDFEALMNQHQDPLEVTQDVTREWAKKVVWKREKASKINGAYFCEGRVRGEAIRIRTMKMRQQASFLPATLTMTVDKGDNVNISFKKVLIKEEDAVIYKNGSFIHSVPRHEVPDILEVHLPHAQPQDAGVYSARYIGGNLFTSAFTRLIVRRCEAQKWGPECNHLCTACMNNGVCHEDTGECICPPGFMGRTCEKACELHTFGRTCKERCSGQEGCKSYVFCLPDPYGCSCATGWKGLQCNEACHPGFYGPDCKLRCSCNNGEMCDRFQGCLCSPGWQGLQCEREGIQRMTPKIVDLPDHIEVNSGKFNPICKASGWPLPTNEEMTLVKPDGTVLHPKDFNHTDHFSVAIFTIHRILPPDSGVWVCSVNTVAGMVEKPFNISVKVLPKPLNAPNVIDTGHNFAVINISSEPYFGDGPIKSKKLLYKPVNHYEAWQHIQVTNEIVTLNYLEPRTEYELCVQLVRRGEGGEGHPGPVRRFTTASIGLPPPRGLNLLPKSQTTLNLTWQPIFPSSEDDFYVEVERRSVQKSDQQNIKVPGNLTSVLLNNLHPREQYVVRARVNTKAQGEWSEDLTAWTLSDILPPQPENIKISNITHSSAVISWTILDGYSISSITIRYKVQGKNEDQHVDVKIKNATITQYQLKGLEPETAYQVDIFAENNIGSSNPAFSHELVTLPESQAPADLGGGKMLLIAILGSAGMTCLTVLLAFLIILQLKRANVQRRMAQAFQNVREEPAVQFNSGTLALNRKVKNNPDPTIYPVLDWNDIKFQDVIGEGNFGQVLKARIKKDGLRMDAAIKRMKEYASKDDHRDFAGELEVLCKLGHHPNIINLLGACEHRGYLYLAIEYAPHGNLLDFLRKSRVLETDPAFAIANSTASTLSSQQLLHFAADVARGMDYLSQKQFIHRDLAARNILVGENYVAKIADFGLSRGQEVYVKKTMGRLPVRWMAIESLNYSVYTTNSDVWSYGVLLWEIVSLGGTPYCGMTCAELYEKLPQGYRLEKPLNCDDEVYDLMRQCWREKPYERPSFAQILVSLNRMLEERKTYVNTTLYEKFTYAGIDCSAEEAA

For `COc1cccc(-n2nc(C(C)(C)C)cc2NC(=O)Nc2ccc(-c3cncc4c3cnn4C)cc2)c1` [Example 15.5, 1-[5-tert-Butyl-2-(3-methoxy-phenyl)-2H-pyrazol-3-yl]-3-[4-(1-methyl-1H-pyrazolo[3,4-c]pyridin-4-yl)-phenyl]-urea], the IC50 against Tie2 [1] and at Tie2 [2] was under 501 nM throughout.

As to `Cn1ncc2c(-c3ccc(NC(=O)Nc4cc(C(C)(C)C)nn4-c4ccc(F)cc4)cc3)cncc21` [Example 15.7, 1-[5-tert-Butyl-2-(4-fluoro-phenyl)-2H-pyrazol-3-yl]-3-[4-(1-methyl-1H-pyrazolo[3,4-c]pyridin-4-yl)-phenyl]-urea], the IC50 against Tie2 [1] and on Tie2 [2] was under 501 nM throughout.

For `Cn1ncc2c(-c3ccc(NC(=O)Nc4cc(C(C)(C)C)nn4-c4ccncc4)cc3)cncc21` [Example 15.10, 1-(5-tert-Butyl-2-pyridin-4-yl-2H-pyrazol-3-yl)-3-[4-(1-methyl-1H-pyrazolo[3,4-c]pyridin-4-yl)-phenyl]-urea], the IC50 against Tie2 [1] and on Tie2 [2] was under 501 nM in each case.

On to `Cn1ncc2c(-c3ccc(NC(=O)Nc4cc(C(C)(C)C)nn4-c4cncc(F)c4)cc3)cncc21` [Example 15.12, 1-[5-tert-Butyl-2-(5-fluoro-pyridin-3-yl)-2H-pyrazol-3-yl]-3-[4-(1-methyl-1H-pyrazolo[3,4-c]pyridin-4-yl)-phenyl]-urea], for which the IC50 against Tie2 [1] and on Tie2 [2] was under 501 nM in each case.

In the case of `Cn1ncc2c(-c3ccc(NC(=O)Nc4cc(C(C)(C)C)nn4-c4cncc(F)c4)c(F)c3)cncc21` [Example 15.13, 1-[5-tert-Butyl-2-(5-fluoro-pyridin-3-yl)-2H-pyrazol-3-yl]-3-[2-fluoro-4-(1-methyl-1H-pyrazolo[3,4-c]pyridin-4-yl)-phenyl]-urea], the IC50 on Tie2 [1] and on Tie2 [2] was under 501 nM in each case.
